Some test systems named below: SR leukemia; COLO 205 colon; NCI/ADR-RES ovarian; PC-3 prostate; OVCAR-8 ovarian; OVCAR-4 ovarian; T-47D breast; HOP-92 NSCLC; SF-268 CNS; CAKI-1 renal; MALME-3M melanoma; SK-MEL-28 melanoma; SK-MEL-5 melanoma; SNB-19 CNS; HOP-62 NSCLC; SNB-75 CNS.
Common to all, as to assay: NCI anticancer screen, dose series, 48 h

Among the data in PubChem BioAssay (NCI) are TGI values, retold here.

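Step 1: Grow cells in 96-well plates. Step 2: Expose to compound for 48 hours at 5 concentrations. Step 3: Interpolate endpoints linearly; if unreached, use highest concentration. At the TGI there is no net growth.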

For `CC(=O)c1ccc(Nc2nc3ccccc3c3occc23)cc1`, the TGI is 18.4 µM with SR leukemia; 27.6 µM in the assay with COLO 205 colon; 58 µM in the assay with NCI/ADR-RES ovarian; more than 100 µM in the assay with PC-3 prostate; more than 100 µM with OVCAR-8 ovarian; 8.78 µM in the assay on OVCAR-4 ovarian. The TGI is 29.9 µM with T-47D breast; 49.8 µM in the assay on HOP-92 NSCLC; 75.7 µM in the assay with SF-268 CNS; 16.1 µM in the assay on CAKI-1 renal; 63.4 µM with MALME-3M melanoma; 15.9 µM with SK-MEL-28 melanoma. Moreover, the TGI in the assay with SK-MEL-5 melanoma is 28.2 µM; in the assay with SNB-19 CNS it was more than 100 µM; with HOP-62 NSCLC, 36.2 µM.
For `C[n+]1ccc2/c(=C\C#N)c3ccccc3n21`, the TGI with SR leukemia was 56.5 µM; with COLO 205 colon, 45.4 µM; in the assay on NCI/ADR-RES ovarian, more than 100 µM; in the assay with PC-3 prostate, more than 100 µM; with OVCAR-8 ovarian it was more than 100 µM; with OVCAR-4 ovarian, 72.9 µM. Also, the TGI in the assay with T-47D breast is 32.7 µM; with HOP-92 NSCLC it was 63.2 µM; with SF-268 CNS it was more than 100 µM; in the assay on CAKI-1 renal, more than 100 µM; with MALME-3M melanoma it was 44.6 µM; in the assay with SK-MEL-28 melanoma it was 53.5 µM. The TGI in the assay on SK-MEL-5 melanoma is 35.6 µM; in the assay on SNB-19 CNS, 30.1 µM; with HOP-62 NSCLC it was more than 100 µM.
For the compound `COC1=C(OC)C(=O)C(C/C=C/c2c(Cl)nc3sccn23)=C(C)C1=O`, the TGI in the assay on SR leukemia stood at 66 µM; in the assay with COLO 205 colon it was 31.9 µM; in the assay on NCI/ADR-RES ovarian it was 29.6 µM; in the assay on PC-3 prostate, 31.6 µM; in the assay on OVCAR-8 ovarian, 24.2 µM; in the assay on OVCAR-4 ovarian, 13.9 µM. Also, the TGI in the assay with T-47D breast turned out to be 84.2 µM; with SF-268 CNS, 38 µM; in the assay on CAKI-1 renal, 50.7 µM; in the assay with MALME-3M melanoma it was 17 µM; with SK-MEL-28 melanoma, 33.7 µM; with SK-MEL-5 melanoma it was 12.9 µM. In addition, the TGI in the assay with SNB-19 CNS worked out at 27.6 µM; in the assay with HOP-62 NSCLC it was 32.1 µM.
In the case of `CCOC(OCC)[C@@H]1C[C@@H]2N(O[C@H](OC3CCCC3(c3ccccc3)c3ccccc3)[C@H](OC(C)=O)[C@@]2(CC)Cc2ccc(OC)c(OC)c2)O1` (stereo partly specified), the TGI with SR leukemia, with COLO 205 colon, in the assay on NCI/ADR-RES ovarian, with PC-3 prostate, with OVCAR-4 ovarian and in the assay with T-47D breast was more than 100 µM in each case. Also, the TGI in the assay with SF-268 CNS, in the assay on CAKI-1 renal, in the assay on SK-MEL-28 melanoma, with SK-MEL-5 melanoma, with SNB-19 CNS and with SNB-75 CNS was more than 100 µM in each case. The TGI with HOP-62 NSCLC is more than 100 µM.
Consider `CCOC(=O)CN1C(=O)c2c(NC(=O)C(=O)O)cccc2S1(=O)=O`, for which the TGI in the assay on SR leukemia, in the assay on COLO 205 colon, in the assay with NCI/ADR-RES ovarian, in the assay on PC-3 prostate, in the assay on OVCAR-8 ovarian and in the assay on OVCAR-4 ovarian was more than 100 µM in each case. Moreover, the TGI in the assay with T-47D breast, with HOP-92 NSCLC, in the assay on SF-268 CNS, in the assay on CAKI-1 renal, in the assay with MALME-3M melanoma and in the assay with SK-MEL-28 melanoma was more than 100 µM each time. The TGI with SK-MEL-5 melanoma, in the assay on SNB-19 CNS and with HOP-62 NSCLC was more than 100 µM in each case.
As for `O=c1[nH]nc(-c2ccccc2)n1-n1cccc1`, the TGI is 97 µM in the assay on SR leukemia; more than 100 µM in the assay on COLO 205 colon; more than 100 µM in the assay with NCI/ADR-RES ovarian; more than 100 µM in the assay on PC-3 prostate; more than 100 µM with OVCAR-8 ovarian; more than 100 µM in the assay with OVCAR-4 ovarian. The TGI in the assay on T-47D breast, in the assay on SF-268 CNS, in the assay with CAKI-1 renal, with MALME-3M melanoma, in the assay on SK-MEL-28 melanoma and with SK-MEL-5 melanoma was more than 100 µM in each case. The TGI with SNB-19 CNS, in the assay with SNB-75 CNS and in the assay on HOP-62 NSCLC was more than 100 µM throughout.
For `CCCCCCC(O)C(=O)OC1C2C(CC1(C)C)C(O)C13OC1C(O)C1(CO1)[C@@]23C` (stereo partly specified), the TGI in the assay with SR leukemia, in the assay with COLO 205 colon, in the assay on NCI/ADR-RES ovarian, in the assay with PC-3 prostate, in the assay on OVCAR-8 ovarian and in the assay on OVCAR-4 ovarian was more than 100 µM in each case. Further, the TGI was more than 100 µM with T-47D breast; 53.6 µM with SF-268 CNS; more than 100 µM in the assay with CAKI-1 renal; more than 100 µM with MALME-3M melanoma; more than 100 µM in the assay on SK-MEL-28 melanoma; 40.9 µM in the assay on SK-MEL-5 melanoma. In addition, the results for the TGI with SNB-19 CNS, in the assay with SNB-75 CNS and in the assay with HOP-62 NSCLC were more than 100 µM, 31.2 µM and more than 100 µM, respectively.
As to `COc1c(-c2ccc(F)cc2)oc2c(CC(=O)O)cccc2c1=O`, the TGI in the assay on SR leukemia, in the assay on COLO 205 colon, in the assay on NCI/ADR-RES ovarian, in the assay on PC-3 prostate, in the assay on OVCAR-8 ovarian and in the assay on T-47D breast was more than 100 µM in each case. Moreover, the TGI in the assay on SF-268 CNS is more than 100 µM; with CAKI-1 renal it was 71.5 µM; with MALME-3M melanoma it was more than 100 µM; with SK-MEL-5 melanoma it was more than 100 µM; with HOP-62 NSCLC, more than 100 µM.
`O=C(Cn1c2ccc(Br)cc2c2nc3ccccc3nc21)N1CCOCC1`: the TGI in the assay with COLO 205 colon, in the assay on NCI/ADR-RES ovarian, with PC-3 prostate, in the assay with OVCAR-8 ovarian, in the assay with OVCAR-4 ovarian and in the assay on T-47D breast was more than 100 µM in each case. Also, the TGI was 83.3 µM in the assay with HOP-92 NSCLC; more than 100 µM in the assay with SF-268 CNS; more than 100 µM in the assay on CAKI-1 renal; more than 100 µM in the assay on MALME-3M melanoma; more than 100 µM with SK-MEL-28 melanoma; more than 100 µM in the assay on SK-MEL-5 melanoma. Moreover, the TGI with SNB-19 CNS, in the assay on SNB-75 CNS and with HOP-62 NSCLC was more than 100 µM each time.
Regarding `CSc1c(S(C)=O)c2ccccc2n1C` (stereo unspecified), the TGI in the assay on SR leukemia, in the assay on COLO 205 colon, in the assay with NCI/ADR-RES ovarian, with PC-3 prostate, in the assay with OVCAR-8 ovarian and in the assay on OVCAR-4 ovarian was more than 100 µM in each case. The TGI in the assay on T-47D breast, in the assay on SF-268 CNS, in the assay on CAKI-1 renal, with MALME-3M melanoma, in the assay with SK-MEL-28 melanoma and in the assay on SK-MEL-5 melanoma was more than 100 µM each time. The TGI in the assay with SNB-19 CNS, with SNB-75 CNS and in the assay with HOP-62 NSCLC was more than 100 µM each time.
As for `COC(=O)CCc1cc(OC)c2oc(-c3ccc(OC)c(OC)c3)c(CO)c2c1`, the TGI in the assay on SR leukemia, in the assay with COLO 205 colon, in the assay on NCI/ADR-RES ovarian, with PC-3 prostate, with OVCAR-8 ovarian and with OVCAR-4 ovarian was more than 100 µM throughout. The TGI in the assay on T-47D breast, in the assay with HOP-92 NSCLC, with SF-268 CNS, in the assay on CAKI-1 renal, in the assay on MALME-3M melanoma and with SK-MEL-28 melanoma was more than 100 µM throughout. In addition, the TGI in the assay with SK-MEL-5 melanoma, with SNB-19 CNS and in the assay with HOP-62 NSCLC was more than 100 µM in each case.
Take `O=C1NC(NNc2ccccc2)=N/C1=C\c1ccco1`: the TGI is 25.1 µM with COLO 205 colon; more than 100 µM with NCI/ADR-RES ovarian; 71.5 µM with PC-3 prostate; 32.7 µM in the assay on OVCAR-8 ovarian; 32.7 µM with OVCAR-4 ovarian; 44.9 µM with T-47D breast. The TGI was 30.6 µM with HOP-92 NSCLC; 75.2 µM with SF-268 CNS; 30.6 µM in the assay with CAKI-1 renal; 81.6 µM in the assay on MALME-3M melanoma; 68.5 µM in the assay on SK-MEL-28 melanoma; more than 100 µM with SK-MEL-5 melanoma. In addition, the TGI in the assay on SNB-19 CNS, in the assay on SNB-75 CNS and in the assay with HOP-62 NSCLC was more than 100 µM throughout.
For `O=C(/C=C/c1ccc(Cl)cc1)c1nc2ccccc2[nH]1`, the TGI was 50.4 µM in the assay with COLO 205 colon; more than 100 µM with NCI/ADR-RES ovarian; more than 100 µM with PC-3 prostate; more than 100 µM in the assay with OVCAR-8 ovarian; 71.3 µM in the assay on OVCAR-4 ovarian; 38.9 µM in the assay with T-47D breast. For the same compound, the TGI in the assay with HOP-92 NSCLC is more than 100 µM; with SF-268 CNS it was more than 100 µM; in the assay with CAKI-1 renal, 10.1 µM; in the assay with MALME-3M melanoma, more than 100 µM; in the assay on SK-MEL-28 melanoma it was more than 100 µM; in the assay on SK-MEL-5 melanoma, more than 100 µM. For the same compound, the results for the TGI in the assay with SNB-19 CNS, in the assay with SNB-75 CNS and with HOP-62 NSCLC were more than 100 µM, 43.8 µM and 50.1 µM, respectively.
Consider `CC(NNC(=S)N1CCCC1)c1cccnn1` (stereo unspecified), for which the TGI is more than 100 µM in the assay with SR leukemia; more than 100 µM in the assay with COLO 205 colon; more than 62.9 µM with NCI/ADR-RES ovarian; more than 100 µM with PC-3 prostate; more than 76.9 µM in the assay with OVCAR-4 ovarian; more than 100 µM in the assay on T-47D breast. Besides, the TGI is more than 100 µM in the assay with CAKI-1 renal; more than 100 µM in the assay with MALME-3M melanoma; more than 31.6 µM with SK-MEL-28 melanoma; 5.39 µM in the assay on SK-MEL-5 melanoma; more than 100 µM in the assay with SNB-19 CNS; more than 28.7 µM in the assay with SNB-75 CNS. Besides, in the assay on HOP-62 NSCLC, the TGI was more than 31 µM.
Take `CC(=O)c1sc2c(c1OC(=O)c1ccccc1)c(=O)n(-c1ccccc1)c(=S)n2-c1ccccc1`: the TGI in the assay with COLO 205 colon is 30.1 µM; in the assay with NCI/ADR-RES ovarian it was 28.7 µM; in the assay on PC-3 prostate, 14.9 µM; in the assay with OVCAR-8 ovarian, more than 28.3 µM; with OVCAR-4 ovarian, 57.9 µM; in the assay on T-47D breast, more than 50.3 µM. The TGI was 5.94 µM with HOP-92 NSCLC; more than 63 µM in the assay on SF-268 CNS; more than 26.4 µM in the assay on CAKI-1 renal; 5.92 µM in the assay on MALME-3M melanoma; 30.4 µM in the assay on SK-MEL-28 melanoma; 18.4 µM in the assay with SK-MEL-5 melanoma. Besides, the TGI is more than 47.8 µM with SNB-19 CNS, 28.6 µM in the assay with SNB-75 CNS and 45.9 µM with HOP-62 NSCLC.
